Counter-ions that a name gives are not always drawn. Peptide text beside a SMILES is read from it.
Tests used:
[1] = Preliminary test administration of the peptide; assay type: in vivo, human; conditions: 10 mg of the peptide subcutaneously before first vaccine administration, monitoring 30 minutes, all cases
Description: For the purpose of avoiding unanticipated adverse events, such as anaphylactic shock, 10 mg of the peptide is subcutaneously administered as a preliminary test administration before the first vaccine administration to a site other than the site of the actual administration, and monitoring is carried out for 30 minutes. If a Grade 3 or higher local reaction or systemic adverse event could not be observed, the actual administration was carried out.

[2] = tested on: unresectable pancreatic cancer; conditions: cited from earlier work
[3] = standard therapy against unresectable pancreatic cancer

Structure (SMILES)	local adverse event and systemic adverse event [1]	Evident tumor reducing effect (Objective Response) ([2]; gemcitabine alone, data obtained so far) [%]	Disease control rate (SD or higher) ([2]; gemcitabine alone, data obtained so far, listed as GEM alone)	median survival period [2, 3] [months]	one-year survival rate [2, 3] [%]
CC[C@H](C)[C@H](NC(=O)[C@H](CCCNC(=N)N)NC(=O)[C@H](CC(N)=O)NC(=O)CNC(=O)[C@H](CC(=O)O)NC(=O)[C@@H]1CCCN1C(=O)[C@@H](NC(=O)[C@H](Cc1ccccc1)NC(=O)[C@@H](N)CCCNC(=N)N)C(C)C)C(=O)O [VEGFR2-169, RFVPDGNRI] (H-RFVPDGNRI-OH)	not observed in any of the cases	–	–	–	–
Nc1ccn([C@@H]2O[C@H](CO)[C@@H](O)C2(F)F)c(=O)n1 [gemcitabine, 2′-deoxy-2′,2′-difluorocytidine monohydrochloride (b-isomer)]	–	10	45-48%	5.7	18

From patent US8703713B2, “Combination therapy for pancreatic cancer using an antigenic peptide and chemotherapeutic agent” (Onco Therapy Science, Inc., priority 2007, dated 2014)
